According to patent US10392366B2, “Azetidine compounds as GPR119 modulators for the treatment of diabetes, obesity, dyslipidemia and related disorders” (SANOFI, priority 2017, dated 2019):

Target: T1, human GPR119 (Homo sapiens, UniProt Q8TDV5)
T1 construct: expressed in transfected cells
T1 sequence (Q8TDV5 1-335): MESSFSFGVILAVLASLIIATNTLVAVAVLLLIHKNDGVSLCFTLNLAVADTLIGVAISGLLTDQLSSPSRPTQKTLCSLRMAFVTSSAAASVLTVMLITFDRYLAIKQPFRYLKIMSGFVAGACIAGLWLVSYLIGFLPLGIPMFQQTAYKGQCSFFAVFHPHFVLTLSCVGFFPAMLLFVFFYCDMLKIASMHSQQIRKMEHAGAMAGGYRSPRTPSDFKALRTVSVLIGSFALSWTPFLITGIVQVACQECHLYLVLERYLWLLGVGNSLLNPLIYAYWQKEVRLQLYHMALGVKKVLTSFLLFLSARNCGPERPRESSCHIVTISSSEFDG
Test: Functional cellular assay measuring GPR119-mediated cAMP release (HTRF) in HEK-293 cells stably expressing recombinant GPR119
Format: cell-based
Details: cell line expressing human GPR119, 30 minutes at room temperature
Protocol: Functional Cellular Assays Measuring GPR119-mediated cAMP Release
Compounds of the present disclosure, which are agonists of GPR119, were characterized by functional assays measuring the cAMP response of HEK-293 cell lines stably expressing recombinant GPR119 from man, mouse or rat, or by using the hamster cell line HIT-T15 expressing GPR119 endogenously. The cAMP content was determined using a kit based on homogenous time-resolved fluorescence (HTRF) from Cisbio Corp. (cat. no. 62AM4PEC). For preparation, cells were split into T175 culture flasks and grown to near confluency in medium (DMEM/10% FCS for HEK-293 cells, and F-12K medium/10% horse serum/2.5% FCS for HIT-T15 cells, respectively). Medium was then removed and cells washed with PBS lacking calcium and magnesium ions, followed by proteinase treatment with accutase (Sigma-Aldrich, cat. no. A6964). Detached cells were washed and resuspended in assay buffer (1×HBSS; 20 mM HEPES, 0.1% BSA, 2 mM IBMX) and cellular density determined. They were then diluted to 400000 cells/mL and 25 μL-aliquots dispensed to the wells of 96-well plates. For measurement, 25 μL of test compound in assay buffer was added and incubated for 30 minutes at room temperature. After addition of HTRF reagents diluted in lysis buffer, the plates were incubated for 1 hour, followed by measuring the fluorescence ratio at 665 vs. 620 nm. Potency of the agonists was quantified by determining the concentrations that caused 50% of the maximal response/activation (EC50). See Table 6 for exemplary data obtained using the cell line expressing human GPR119.

SMILES | EC50 [nM]
NC(=O)C1CN(c2ncc(N3CC[C@@H](Oc4ccc(Oc5ccc(F)cc5)nc4)C3=O)cn2)C1 [Compound 4-04] | 5880
NC(=O)C1CN(c2ncc(N3CC[C@@H](Oc4ccc(OCC(F)(F)F)nc4)C3=O)cn2)C1 [Compound 4-21] | 245
CN(CCO)C(=O)C1CN(c2ncc(N3CC[C@@H](Oc4ccc(OCC(F)(F)F)nc4)C3=O)cn2)C1 [Compound 4-17] | 261
NC(=O)OC1CN(c2ncc(N3CC[C@@H](Oc4ccc(OCC(F)(F)F)nc4)C3=O)cn2)C1 [Compound 5-01] | 458
COC(=O)C1CN(c2ccc(N3CC[C@@H](Oc4ccc(OCC(F)(F)F)nc4)C3=O)cn2)C1 [Compound 1-52] | 12
O=C(C1CN(c2ncc(N3CC[C@@H](Oc4ccc(Oc5ccc(F)cc5)nc4)C3=O)cn2)C1)N1CCCC1 [Compound 4-10] | 437
CN(C)C(=O)C1CN(c2ncc(N3CC[C@@H](Oc4ccc(C(=O)C5CC5)cc4)C3=O)cn2)C1 [Compound 2-01] | 218
C[S+]([O-])C1CN(c2ncc(N3CC[C@@H](Oc4ccc(OCC(F)(F)F)nc4)C3=O)cn2)C1 (single isomer, unassigned) [Compound 1-25] | 292
CN(C)C(=O)C1CN(c2ncc(N3CC[C@@H](Oc4ccc(C(=O)c5ccc(F)cc5)nc4)C3=O)cn2)C1 [Compound 2-06] | 145
C[S+]([O-])C1CN(c2ncc(N3CC[C@@H](Oc4ccc(C(=O)C5CC5)cc4)C3=O)cn2)C1 (single isomer, unassigned) [Compound 1-21] | 991
O=C(NCO)C1CN(c2ccc(N3CC[C@@H](Oc4ccc(OCC(F)(F)F)nc4)C3=O)cn2)C1 [Compound 5-04] | 146
CC(C)[S+]([O-])C1CN(c2ncc(N3CC[C@@H](Oc4ccc(OCC(F)(F)F)nc4)C3=O)cn2)C1 (single isomer, unassigned) [Compound 1-36] | 158
CN(C)C(=O)OC1CN(c2ncc(N3CC[C@@H](Oc4ccc(OCC(F)(F)F)nc4)C3=O)cn2)C1 [Compound 5-02] | 1030
CC(C)[S+]([O-])C1CN(c2ncc(N3CC[C@@H](Oc4ccc(OCC(F)(F)F)nc4)C3=O)cn2)C1 (single isomer, unassigned) [Compound 1-35] | 181
CN(C)C(=O)C1CN(c2ccc(N3CC[C@@H](Oc4ccc(OCC(F)(F)F)nc4)C3=O)cn2)C1 [Compound 1-10] | 44
CCN(CC)C(=O)C1CN(c2ncc(N3CC[C@@H](Oc4ccc(OCC(F)(F)F)nc4)C3=O)cn2)C1 [Compound 4-14] | 84
CN(C)C(=O)C1CN(c2ncc(N3CC[C@@H](Oc4ccc(Oc5ccc(F)cc5)nc4)C3=O)cc2C#N)C1 [Compound 1-08] | 92
CN(C)C(=O)C1CN(c2ncc(N3CC[C@@H](Oc4ccc(OCC(F)(F)F)cc4)C3=O)cn2)C1 [Compound 1-53] | 351
CS(=O)(=O)C1CN(c2ncc(N3CCC(Cc4ccc(OCC(F)(F)F)nc4)C3=O)cn2)C1 (single isomer, unassigned) [Compound 1-44] | 138
CS(=O)(=O)C1CN(c2ncc(N3CC[C@@H](Oc4ccc(C(=O)C5CC5)nc4)C3=O)cn2)C1 [Compound 1-33] | 664
CS(=O)(=O)C1CN(c2ncc(N3CC[C@@H](Oc4ccc(C(=O)C5CC5)cc4)C3=O)cn2)C1 [Compound 1-17] | 122
CN(CO)C(=O)C1CN(c2ccc(N3CC[C@@H](Oc4ccc(OCC(F)(F)F)nc4)C3=O)cn2)C1 [Compound 5-05] | 67

SMILES | EC50 [nM]
C[S+]([O-])C1CN(c2ncc(N3CC[C@@H](Oc4ccc(C(=O)C5CC5)cc4)C3=O)cn2)C1 (single isomer, unassigned) [Compound 1-20] | 1970
O=C(O)C1CN(c2ccc(N3CC[C@@H](Oc4ccc(OCC(F)(F)F)nc4)C3=O)cn2)C1 [Compound 3-02] | 391
O=C(C1CN(c2ncc(N3CC[C@@H](Oc4ccc(OCC(F)(F)F)nc4)C3=O)cn2)C1)N1CCCC1 [Compound 4-15] | 84
CN(C)C(=O)C1CN(c2ncc(N3CC[C@@H](Oc4ccc(C(=O)C5CC5(F)F)cc4)C3=O)cn2)C1 (some centres unmarked) [Compound 2-10] | 213
NC(=O)C1CN(c2ccc(N3CC[C@@H](Oc4ccc(OCC(F)(F)F)nc4)C3=O)cn2)C1 [Compound 4-26] | 101
CC(C)SC1CN(c2ncc(N3CC[C@@H](Oc4ccc(OCC(F)(F)F)nc4)C3=O)cn2)C1 [Compound 1-29] | 16
[2H]C([2H])([2H])N(C(=O)C1CN(c2ncc(N3CC[C@@H](Oc4ccc(OCC(F)(F)F)nc4)C3=O)cn2)C1)C([2H])([2H])[2H] [Compound 4-27] | 122
NC1CN(c2ncc(N3CC[C@@H](Oc4ccc(OCC(F)(F)F)nc4)C3=O)cn2)C1 [Compound 1-38] | 9840
CC(=O)N1CCN(C(=O)C2CN(c3ncc(N4CC[C@@H](Oc5ccc(Oc6ccc(F)cc6)nc5)C4=O)cn3)C2)CC1 [Compound 4-08] | 1280
CS(=O)(=O)C1CN(c2ncc(N3CC[C@H](Oc4ccc(OCC(F)(F)F)nc4)C3=O)cn2)C1 [Compound 1-50] | 321
O=C(NC1CC1)C1CN(c2ncc(N3CC[C@@H](Oc4ccc(Oc5ccc(F)cc5)nc4)C3=O)cn2)C1 [Compound 4-09] | 1520
CNC(=O)C1CN(c2ccc(N3CC[C@@H](Oc4ccc(OCC(F)(F)F)nc4)C3=O)cn2)C1 [Compound 4-25] | 88
O=C1[C@H](Oc2ccc(OCC(F)(F)F)nc2)CCN1c1cnc(N2CC3(CCNC3=O)C2)nc1 [Compound 1-26] | 448
CCNC(=O)C1CN(c2ncc(N3CC[C@@H](Oc4ccc(Oc5ccc(F)cc5)nc4)C3=O)cn2)C1 [Compound 4-03] | 4040
C[S+]([O-])C1CN(c2ncc(N3CC[C@@H](Oc4ccc(OCC(F)(F)F)nc4)C3=O)cn2)C1 (single isomer, unassigned) [Compound 1-24] | 335
CN(C)C(=O)C1CN(c2ncc(N3CC[C@@H](Oc4ccc(Oc5ccc(F)cc5)nc4)C3=O)cn2)C1 [Compound 1-23] | 189
CN(C)C(=O)C1CN(c2ccc(N3CC[C@H](Oc4ccc(OCC(F)(F)F)nc4)C3=O)cn2)C1 [Compound 1-11] | 421
COC(=O)CC1CN(c2ncc(N3CC[C@@H](Oc4ccc(OCC(F)(F)F)nc4)C3=O)cn2)C1 [Compound 1-30] | 334
COC(=O)C1CN(c2ccc(N3CC[C@@H](Oc4ccc(OCC5CC5)nc4)C3=O)cn2)C1 [Compound 1-07] | 30
CC(C)[S+]([O-])C1CN(c2ncc(N3CC[C@@H](Oc4ccc(C(=O)C5CC5)c(F)c4)C3=O)cn2)C1 (some centres unmarked) [Compound 1-41] | 221
CN(C)C(=O)C1CN(c2ncc(N3CC[C@@H](Oc4ccc(-c5nccs5)cc4)C3=O)cn2)C1 [Compound 2-03] | 324
CS(=O)(=O)C1CN(c2ncc(N3CC[C@@H](Oc4ccc(C(=O)C5CC5)c(F)c4)C3=O)cn2)C1 [Compound 1-39] | 179
